Data: patent US4246271A, “4-Phenyl-2-thiazolyl-oxamates useful in the treatment of asthma” (priority 1978, dated 1981)

Legend:
[1] = Solubilities; type: physicochemical; conditions: for Solubility in DMSO: DMSO / dimethyl sulfoxide
[2] = Acute toxicity after a single oral administration in mice (Miller & Tainter); type: in vivo; conditions: mouse, in vivo, mice, mortality noted at the end of 7 days, read-out: LD50 approximate
Procedure: (§1) (1) Toxicology (acute toxicity after a single oral administration in mice by the method of Miller & Tainter (Proc. Soc. Exper. Biol. Med., 1944, 57, 261)).
(§2) The products are administered in a suspension of Tween 80+distilled water. The mortality is noted at the end of 7 days. The following table summarizes the results obtained: […]

[3] = system: mice; assay: as above; type: in vivo; conditions: 1000 mg/kg, 10 mice per lot, suspension of Tween 80 + distilled water
Procedure: as §1, §2

[4] = system: rats; assay: Cutaneous passive anaphylaxis test; type: in vivo; conditions: Rattus norvegicus, po; per os, 10 minutes before intravenous injection of antigen + stain; tested at 30, 5, 1 and 0.2 mg/kg, lots of 10 rats; suspension in Tween and water; read-out: ED50 (dose which reduces by one-half the leakage of the stain as compared with the controls)
Procedure: The results are obtained on the cutaneous passive anaphylaxis test in accordance with the method of Broeklehurst W. E. in Handbook of Experimental Immunology, Editor Weiz D. M., Blackwell Scientific Publications, Oxford and Edinborough, pages […] (1967).
(a) Prepare the antiserum on rats sensitized by antigen; inject it intradermally.
(b) Leave a waiting time of 24 to 48 hours.
(c) Administration of the product to be tested per os 10 minutes before operation (d) (intravenous simultaneously with d).
(d) Intravenous injection of the antigen+stain.
(e) Sacrifice 30 minutes afterwards and visualize the antigen-antibody reaction by the leakage of the stain due to the increase of the capillary permeability under the combined influence of histamine and SRSA.
This action is expressed as ED50, i.e., the dose which reduces by one-half the leakage of the stain as compared with the controls.
The tests were carried out in succession with 30, 5, 1 and 0.2 mg/kg on homogeneous lots of 10 rats, with due consideration of their insolubility in water. These compounds are administered in suspension in Tween™ and water.

Row | Solubility in ethanol ([1]; ethanol) [%] | Compound | Solubility in water [1] | LD50 at 168 h [2] [mg/kg] | Mortality at end of 7th day [3] | ED50 [4] [mg/kg] | Solubility in dimethyl acetamid ([1]; dimethyl acetamid) [%] | Solubility in ethanol (in words) ([1]; ethanol) | Solubility in methyl pyrrolidone [1] [%] | Solubility in DMSO [1] [%]
1 | 15 | Nc1nc(-c2ccc(Cl)cc2)cs1 [4-parachlorophenyl-2-amino-thiazole] | insoluble | – | – | – | – | – | – | –
2 | – | CCOC(=O)C(=O)Nc1nc(-c2ccccc2)cs1 [Example 1, Ethyl-(4-phenyl-2-thiazolyl)-oxamate] | insoluble | > 1000 | 1 | 1 | 20 | insoluble | 25 | –
3 | – | CCOC(=O)C(=O)Nc1nc(-c2ccc(Cl)cc2)cs1 [Example 2, Ethyl-(4-p-chlorophenyl-2-thiazolyl)-oxamate] | insoluble | > 1000 | 0 | – | – | insoluble | 4 | 1
4 | – | CCOC(=O)C(=O)Nc1nc(-c2ccc(OC)cc2)cs1 [Example 3, Ethyl-(4-paramethoxyphenyl-2-thiazolyl)-oxamate] | insoluble | > 1000 | 1 | 2 | – | insoluble | 50 | 50
5 | – | Cc1cccc(-c2csc(NC(=O)C(=O)OCc3ccccc3)n2)c1 [Example 4, Benzyl-(4-metamethylphenyl-2-thiazolyl)-oxamate] | – | > 1000 | 1 | – | – | – | – | –
6 | – | O=C(Nc1nc(-c2ccccc2Br)cs1)C(=O)OCc1ccccc1 [Example 5, Benzyl-(4-orthobromophenyl-2-thiazolyl)-oxamate] | – | > 1000 | 2 | – | – | – | – | –
